# Assay results taken from patent US20060205597A1, “Weed-controlling mulching composition” (priority 2002, published 2006).
# Tested on: Rumex obtusifolius, Trifolium repens, and Artemisia indica var. maximowiczii
# Test: Field test on bottom weed of an apple orchard
# Assay type: in vivo
# Conditions: after 3 months
# Excerpt: On May 21, 5.0 liters per square meter (m^2) of a slurry obtained by mixing 15% of nonstoichiometric magnesia carbonate cement with 100 fold diluted solution of glyphosate was applied to the bottom weed of an apple orchard in Hirosaki city of Aomori prefecture. The kinds of the bottom weed included Rumex obtusifolius, Trifolium repens, and Artemisia indica var. maximowiczii and these grew to a height of 150 mm. As comparative sections, a glyphosate alone section and a no-glyphosate section were provided and after 3 months the state of growth of weeds was observed. […] From the viewpoint of the thickness of the weed, mixed application of the herbicide and the nonstoichiometric magnesia carbonate cement was very effective and the mixed treatment section inhibited the growth of the weeds until October.
smiles,measurement,setting,value
O=C(O)CNCP(=O)(O)O [glyphosate],state of growth of weeds,5.0 liters per square meter applied May 21,again grew
same,height of regrown weed (spindly growth),,230 mm
